# Source: PubChem BioAssay AID1996
# Details: buffer; pH 7.4; 200.0 µM
row,Compound,solubility kinetic [µg/mL]
1,CCCCNC(=S)N1CCN(c2ccc(C(C)=O)cc2)CC1,8
2,O=[N+]([O-])c1ccc(Sc2ncc3ccccn23)nc1,20.6
3,CC(C)(C)c1cc(-c2ccccc2)no1,0.8
4,COc1nc2ccccc2nc1N1CCN(C)CC1,38.4
5,COc1ccccc1C(=O)C1CCCN(Cc2cccc3nccnc23)C1 (stereo not drawn),39.5
6,Cc1cccc(C)c1N(CC(=O)N1CCCC1)S(C)(=O)=O,35.2
7,Cc1cc2c(NCc3ccccc3)ncnc2s1.Cl,41.7
8,C=CCn1c(C)cc(C(=O)COC(=O)CCc2cc(OC)c(OC)c(OC)c2)c1C,31.8
9,O=C(COC(=O)c1cc(S(=O)(=O)N2CCOCC2)ccc1F)Nc1cc([N+](=O)[O-])ccc1F,7.4
10,CCOc1ccc(C(=O)NCC(c2ccco2)N2CCOCC2)cc1 (stereo not drawn),> 51.7
11,O=C(Nc1cccnc1Cl)c1cc2ccccc2o1,7.3
12,CC(NC(=O)COC(=O)c1cc(S(=O)(=O)N2CCOCC2)ccc1F)c1ccccc1 (stereo not drawn),> 67.6
13,CCC(C)NC(=O)C(=O)NCC1CCCN1CC (stereo not drawn),28.8
14,Cc1c(-c2nc(-c3ccncc3)no2)cccc1[N+](=O)[O-],1.7
15,Cc1csc2nc(O)c(C(=O)NCCCc3ccccc3)c(=O)n12,4.2
16,Cc1ccccc1NC(=O)c1ccco1,> 30.2
17,Cc1ccc2c(C)c(C(=O)NCCc3ccco3)oc2c1C,2.8
18,CN1C(=O)NC(c2ccccc2[N+](=O)[O-])C2=C1CC(C)(C)CC2=O (stereo not drawn),39.4
19,Cc1ccc(OCCNC(=O)c2ccc3c(c2)OCO3)cc1,14.4
20,COc1cccc(C(=O)OCC(=O)N2CCC(Cc3ccccc3)CC2)c1OC,28.1
21,COc1ccc(CNC(=O)Cc2c[nH]c3ccccc23)cc1OC,48.6
22,COc1ccccc1C1=NOC(CN2C(=O)c3ccccc3S2(=O)=O)C1 (stereo not drawn),34.6
23,CN(Cc1ccccc1)C(=O)Cc1ccccc1,35.5
24,Cc1ccc(S(=O)(=O)NC(=O)Nc2c(C)cccc2C)cc1,33.6

row,Compound,solubility kinetic [µg/mL]
1,CC(C)(Cc1ccc(O)cc1)NC(=O)c1ccccc1,36.7
2,O=C1c2ccccc2S(=O)(=O)N1Cc1ccccc1[N+](=O)[O-],0.7
3,S=C(Nc1cccnc1)N1CCCCC1,> 33.2
4,Cc1nc(N2CCOCC2)nc(N2CCCCC2C)c1[N+](=O)[O-] (stereo not drawn),12.2
5,Cc1ccc(C(=O)N[C@H](C(=O)Nc2ccc(F)cc2)C(C)C)cc1,3
6,CN(c1ccc(O)cc1)S(=O)(=O)c1ccc2ccccc2c1,> 47
7,C/C(=N\NC(=O)C1CC1)c1ccc(C)c(C)c1,> 34.5
8,CC(C)(C)c1ccc(NC(=S)NCc2cccnc2)cc1,40.8
9,C=CCNC(=S)NNC(=O)C(CC(C)C)CC(C)O (stereo not drawn),> 43.1
10,CC(=O)N(C)c1ccc(NC(=O)C(c2ccccc2)c2ccccc2)cc1,40.2
11,CC(C)Oc1ccc(CNC(=O)Oc2ccccc2)cc1,25.5
12,Cc1cc(C)cc(CC2CC(=O)N(c3ccc([N+](=O)[O-])cc3)C2=O)c1 (stereo not drawn),< 0.4
13,O=C(NCCc1ccccc1)c1ccc2c(c1)OCCCO2,39.8
14,CC1CC(C)CN(c2ccc(NS(=O)(=O)c3ccccc3)cc2C(=O)O)C1 (stereo not drawn),57.2
15,CCOC(=O)c1cnc2c(ccc3ccccc32)c1Cl,< 0.6
16,COc1ccc([N+](=O)[O-])c(OC)c1C(=O)NC(=O)Nc1nc(C)cc(C)n1,43.6
17,O=C(OCCN1C(=O)c2ccccc2C1=O)Oc1ccccc1,37.1
18,COc1ccccc1CN(C)C(=O)c1ccc(S(=O)(=O)Nc2c(C)n(C)n(-c3ccccc3)c2=O)cc1,> 78.1
19,O=C(NC(=S)N1CCOCC1)c1ccc(F)cc1,> 40.2
20,Nn1c(SCC(=O)NC2CCCCCC2)nnc1C(F)(F)F,> 50.6
21,CC(=O)c1c(C)[nH]c(C(=O)Nc2nccs2)c1C,20.8
22,O=C(Nc1cccc2ncccc12)c1ccccc1[N+](=O)[O-],36.6
23,Cc1cccc(OP(N)(=O)Oc2cccc(C)c2)c1,40.6
24,NC(=O)C1CCN(c2oc(-c3cccs3)nc2S(=O)(=O)c2ccc(Br)cc2)CC1,17.6

row,Compound,solubility kinetic [µg/mL]
1,CC(NC(=O)COC(=O)c1ccc(N2CCCC2=O)cc1)c1ccc(F)cc1 (stereo not drawn),8.2
2,CC(NC(=S)Nc1ccccc1C(F)(F)F)C1CC2CCC1C2 (stereo not drawn),2.1
3,O=C(NC(=S)Nc1ccc(O)cc1)C1CCCC1,> 39.7
4,O=C(O)C1C2C=CC(O2)C1C(=O)NCCc1cccc(Cl)c1 (stereo not drawn),> 48.3
5,O=S(=O)(c1ccc(Cl)s1)N1CCNCC1,> 40
6,Fc1ccccc1CNc1nc(-c2cccnc2)nc2ccccc12,9
7,COc1ccc(/C=N/NC(=O)c2ccccc2O)cc1COc1ccccn1,> 56.6
8,O=C1c2ccccc2C(O)(c2ccccc2)N1C1CC1 (stereo not drawn),38.3
9,Cc1cc(C(=O)OC(C)C(=O)NC2CCCCC2C)c(C)o1 (stereo not drawn),5.5
10,CC(C)CC(=O)Nc1ccc(Cc2ccncc2)cc1,> 40.3
11,Nc1nc2ccccc2n1CCOc1ccc(F)cc1,> 40.7
12,O=C(CNS(=O)(=O)c1ccc(Cl)cc1)N1CCN(c2ccc(F)cc2)CC1,8.3
13,CC(C)Cn1cc(Cl)c(=O)n(CC(C)C)c1=O,> 38.8
14,CCOC(=O)c1cnc(-c2ccccc2)nc1C(F)(F)F,< 0.3
15,Cc1ccc(F)cc1N=Cc1c(O)c2ccccc2oc1=O,< 0.6
16,CC(=O)c1cccc(NC(=O)C2C3C=CC(C3)C2C(=O)O)c1 (stereo not drawn),> 44.9
17,Cc1cnc(C(=O)N2CCN(S(=O)(=O)c3ccc(F)c(F)c3F)CC2)cn1,55.8
18,Cc1ccc(OCc2cc(C(=O)NC3CCOC3)no2)cc1C (stereo not drawn),33.1
19,COc1ccc(OC)c(CN2CCSCC2)c1,25.5
20,CC(=O)Oc1cc(C(=O)OCC(=O)N2CCc3ccccc3C2)cc(OC(C)=O)c1OC(C)=O,> 70.4
21,O=C(NC(=S)N1CCCCCC1)c1cccc([N+](=O)[O-])c1,> 46.1
22,NC(=O)c1cc(S(=O)(=O)Nc2cccc(Cl)c2)cs1,> 47.5
23,CCOc1ccc(S(=O)(=O)NC2=NCCCCC2)cc1,> 44.5
24,CN1CCC(NC(=O)c2cccc(Oc3ccccc3)c2)CC1,> 46.6

row,Compound,solubility kinetic [µg/mL]
1,CCOc1ccc(-c2cn(-c3ccccc3OC)c(=S)[nH]2)cc1,17.7
2,CN(C)S(=O)(=O)c1cccc(C(=O)Nc2ccccc2C(=O)NC2CC2)c1,47
3,c1ccc(-c2ncc3ccccn23)cc1,19.1
4,COC(=O)c1cnc[nH]1,> 18.9
5,N/C(=N\OC(=O)c1ccc(OCC(F)(F)F)nc1)c1ccc(Cl)cc1,1.2
6,CSc1nc(N)cc(=O)[nH]1,> 23.6
7,Cn1c(=O)n(C)c2cc3[nH]cnc3cc21,> 30.3
8,COc1cc2c(cc1OC)C(c1ccccc1OC(C)C)CC(=O)N2 (stereo not drawn),< 0.7
9,CCCCn1c(SCC(=O)NC2CC2)nc2ccccc2c1=O,2.6
10,Cc1ccc(OCC(=O)N2CC(C)CC(C)C2)c([N+](=O)[O-])n1 (stereo not drawn),> 46.1
11,CC1CCC(C(C)C)C(OCC(O)CN2CCCC(C)C2)C1.Cl (stereo not drawn),> 52.2
12,CS(=O)(=O)N(CC(=O)N1CCOCC1)c1cccc([N+](=O)[O-])c1,> 51.5
13,CC(CNC(=O)c1ccccc1[N+](=O)[O-])NC(=O)c1ccccc1[N+](=O)[O-] (stereo not drawn),> 55.9
14,N#C/C(=C\c1cccc([N+](=O)[O-])c1)c1ccccn1,3.6
15,COc1cccc(CN(C)C(=S)Nc2cccc(C)c2)c1,40.4
16,CCN(CC)c1ccc(N2C(=O)/C(=C/c3ccccn3)SC2=S)cc1,< 0.3
17,COC(=O)CN(C#N)c1nc(N(C)C)nc(N(C)C)n1,31.2
18,OCCC1CN(Cc2ccon2)CCN1CCc1ccccc1 (stereo not drawn),42.3
19,Cc1cccc(OC(=O)c2cccnc2)c1C,25
20,Cc1noc(C)c1S(=O)(=O)N1CCC(C(=O)c2ccccc2)CC1,30
21,Cc1ccc(NC(=O)COC(=O)C2CC2)cc1S(=O)(=O)N1CCOCC1,> 57.4
22,Cc1ccc(C)c(OCCCNCc2ccccc2)c1.O=C(O)C(=O)O,> 53.9
23,O=C1c2cccc3cccc(c23)C(=O)N1Cc1cccnc1,1.6
24,CCCCC(=O)N(Cc1ccc(F)cc1)C1CCS(=O)(=O)C1 (stereo not drawn),46.9

row,Compound,solubility kinetic [µg/mL]
1,CCN(CC(=O)NCc1ccc2c(c1)OCO2)S(=O)(=O)c1ccc(F)cc1,55.6
2,Cc1csc(NC(=O)c2cc3ccccc3o2)n1,16
3,N#Cc1nc(-c2cccc3ccccc23)oc1NCC1CCCO1 (stereo not drawn),3.3
4,Cc1ccc(NC(=O)Cc2ccsc2)cc1S(=O)(=O)N1CCOCC1,> 57.1
5,O=C(NC(=S)Nc1ccccc1F)C1CCCCC1,3
6,C=CCNC(=O)C1CCC(=O)N1S(=O)(=O)c1ccc(C)cc1 (stereo not drawn),> 48.4
7,O=[N+]([O-])c1ccc(S(=O)(=O)Nc2ccccn2)cc1,> 41.9
8,Cc1ccc(NC(=O)CCN2C(=O)c3ccccc3C2=O)c(C)c1,4.9
9,CCC(NC(=O)C1CCCC1)c1ccccc1 (stereo not drawn),> 34.7
10,CN(C)c1ccc(-c2nc3cc(N)ccc3o2)cc1,14
11,Oc1ccc(CN2CCN(c3ncccn3)CC2)cc1,34.2
12,O=C(Oc1c(-c2ccccc2)c(=O)n2c3c(cccc13)CC2)c1ccco1,32.6
13,Cc1ccc2oc(C(=O)N3CCN(CCO)CC3)c(C)c2c1,> 45.4
14,Cc1ccc(/C=C(\NC(=O)c2ccccc2)C(=O)N2CCCCC2)cc1,39.9
15,CCOC(=O)c1sc(NC(=O)c2ccccc2OCC)nc1C,< 0.4
16,CCOC(=O)CC(=O)Nc1ccsc1C(N)=O,36.1
17,COc1cccc(C(=O)NOCc2ccccc2)c1OC,> 43.1
18,O=C(CN1c2cccc3cccc(c23)S1(=O)=O)NCCc1ccccc1,2
19,CCOCCCNC(=O)c1cc2c(=O)n(CC)c3ccccc3c2s1,4.8
20,CN(CC(=O)NCc1ccccc1)Cc1ccc(Cl)cc1,43.3
21,Cc1cc(C)c(Nc2ncccc2C(=O)O)c(C)c1,> 38.4
22,Cc1ccc(C2(c3ccc(C)cc3)CC2C(=O)NC(C)C)cc1 (stereo not drawn),1
